Data from ChEMBL document CHEMBL3046656, “Apoptotic effects of some carbazole derivatives on lung carcinoma and glioma cell lines” (Med Chem Res, 2013).
pIC50: −log10 of the molar value. Converted amounts (≈) assume the structure as drawn. The source made the active and inactive calls. The rule behind the calls is not given here.

Legend:
C6 [1] = assay: Inhibition of nuclear DNA synthesis in Rattus norvegicus (rat) C6 cells assessed as decrease in bromodeoxyuridine incorporation measured during S phase at 3.9 to 7.8 ug/mL after 24 hr by ELISA; assay type: functional
C6 [2] = assay: Induction of apoptosis in Rattus norvegicus (rat) C6 cells assessed as late apoptotic cells at IC50 after 24 hr by annexin V FITC/propidium iodide staining-based FACS flow cytometric analysis (reference value: 1.1%); assay type: functional
C6 [3] = assay: Induction of necrosis in Rattus norvegicus (rat) C6 cells at IC50 after 24 hr by annexin V FITC/propidium iodide staining-based FACS flow cytometric analysis relative to untreated control; assay type: functional
A549 [4] = assay: Inhibition of nuclear DNA synthesis in Homo sapiens (human) A549 cells assessed as decrease in bromodeoxyuridine incorporation measured during S phase after 24 hr by ELISA; assay type: functional, cell-based
A549 [5] = assay: Induction of apoptosis in Homo sapiens (human) A549 cells assessed as early apoptotic cells at IC50 after 24 hr by annexin V FITC/propidium iodide staining-based FACS flow cytometric analysis (reference value: 0.5%); assay type: functional
A549 [6] = assay: Cytotoxicity against Homo sapiens (human) A549 cells after 24 hr by MTT assay; assay type: functional, cell-based; conditions: A549, 24 h
C6 [7] = assay: Induction of apoptosis in Rattus norvegicus (rat) C6 cells assessed as viable cells at IC50 after 24 hr by annexin V FITC/propidium iodide staining-based FACS flow cytometric analysis (reference value: 96.4%); assay type: functional
A549 [8] = assay: Inhibition of nuclear DNA synthesis in Homo sapiens (human) A549 cells assessed as decrease in bromodeoxyuridine incorporation measured during S phase at 15.6 to 62.5 ug/mL after 24 hr by ELISA; assay type: functional
C6 [9] = assay: Cytotoxicity against Rattus norvegicus (rat) C6 cells after 24 hr by MTT assay; assay type: functional, cell-based; conditions: C6, 24 h
A549 [10] = assay: Induction of apoptosis in Homo sapiens (human) A549 cells assessed as late apoptotic cells at IC50 after 24 hr by annexin V FITC/propidium iodide staining-based FACS flow cytometric analysis (reference value: 0.4%); assay type: functional
C6 [11] = assay: Inhibition of nuclear DNA synthesis in Rattus norvegicus (rat) C6 cells assessed as decrease in bromodeoxyuridine incorporation measured during S phase after 24 hr by ELISA; assay type: functional, cell-based
[12] = target: Acetylcholinesterase (Electrophorus electricus) (UniProt O42275); assay: Inhibition of Electrophorus electricus (electric eel) AChE using acetylthiocholine iodide as substrate at 80 ug/mL incubated for 15 min prior to substrate addition measured after 30 min by Ellman's spectrophotometric method relative to control
Sequence of Acetylcholinesterase (Electrophorus electricus) (O42275 24-633 limits assumed): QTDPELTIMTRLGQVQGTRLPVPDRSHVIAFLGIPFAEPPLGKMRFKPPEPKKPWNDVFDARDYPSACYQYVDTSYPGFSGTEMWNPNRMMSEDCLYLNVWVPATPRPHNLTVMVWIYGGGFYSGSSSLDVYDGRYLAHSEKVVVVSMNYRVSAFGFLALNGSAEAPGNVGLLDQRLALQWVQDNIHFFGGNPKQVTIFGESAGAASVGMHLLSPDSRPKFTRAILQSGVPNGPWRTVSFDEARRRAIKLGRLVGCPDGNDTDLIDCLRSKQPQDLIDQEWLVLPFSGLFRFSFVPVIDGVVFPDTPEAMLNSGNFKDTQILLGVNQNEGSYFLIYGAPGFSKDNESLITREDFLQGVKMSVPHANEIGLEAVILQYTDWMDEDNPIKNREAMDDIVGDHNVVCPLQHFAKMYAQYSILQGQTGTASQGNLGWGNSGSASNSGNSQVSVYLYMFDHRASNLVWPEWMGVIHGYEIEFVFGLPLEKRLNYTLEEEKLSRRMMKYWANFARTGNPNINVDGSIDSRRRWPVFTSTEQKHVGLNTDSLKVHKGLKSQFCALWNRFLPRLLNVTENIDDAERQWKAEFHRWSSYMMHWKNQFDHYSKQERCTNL

A549 [13] = assay: Induction of apoptosis in Homo sapiens (human) A549 cells assessed as viable cells at IC50 after 24 hr by annexin V FITC/propidium iodide staining-based FACS flow cytometric analysis (reference value: 96.5%); assay type: functional
Acetylcholinesterase = Acetylcholinesterase (Electrophorus electricus, UniProt O42275); assay: Inhibition of Electrophorus electricus (electric eel) AChE using acetylthiocholine iodide as substrate incubated for 15 min prior to substrate addition measured after 30 min by Ellman's spectrophotometric method
Sequence of Acetylcholinesterase (O42275 whole entry): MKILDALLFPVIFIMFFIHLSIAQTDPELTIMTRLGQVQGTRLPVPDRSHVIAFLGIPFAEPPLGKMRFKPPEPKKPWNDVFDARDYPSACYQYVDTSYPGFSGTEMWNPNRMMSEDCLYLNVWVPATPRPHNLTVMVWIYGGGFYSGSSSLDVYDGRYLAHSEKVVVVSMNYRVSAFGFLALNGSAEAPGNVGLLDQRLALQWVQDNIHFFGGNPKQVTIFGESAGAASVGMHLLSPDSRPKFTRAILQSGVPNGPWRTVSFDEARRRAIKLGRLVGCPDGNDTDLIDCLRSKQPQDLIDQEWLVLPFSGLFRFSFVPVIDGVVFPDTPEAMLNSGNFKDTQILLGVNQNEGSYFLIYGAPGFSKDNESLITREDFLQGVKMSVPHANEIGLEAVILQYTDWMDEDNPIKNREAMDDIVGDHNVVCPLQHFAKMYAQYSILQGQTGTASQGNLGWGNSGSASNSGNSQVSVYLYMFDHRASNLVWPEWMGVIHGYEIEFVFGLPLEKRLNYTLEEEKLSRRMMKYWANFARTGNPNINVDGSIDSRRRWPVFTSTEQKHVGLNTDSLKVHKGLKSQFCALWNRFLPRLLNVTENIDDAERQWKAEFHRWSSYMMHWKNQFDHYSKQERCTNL

C6 [14] = assay: Induction of apoptosis in Rattus norvegicus (rat) C6 cells assessed as early apoptotic cells at IC50 after 24 hr by annexin V FITC/propidium iodide staining-based FACS flow cytometric analysis (reference value: 0.5%); assay type: functional
NIH3T3 = assay: Cytotoxicity against Mus musculus (mouse) NIH/3T3 cells after 24 hr by MTT assay; assay type: cell-based; conditions: NIH3T3, 24 h
A549 [15] = assay: Induction of necrosis in Homo sapiens (human) A549 cells at IC50 after 24 hr by annexin V FITC/propidium iodide staining-based FACS flow cytometric analysis relative to untreated control; assay type: functional
C6 [16] = assay: Inhibition of nuclear DNA synthesis in Rattus norvegicus (rat) C6 cells assessed as decrease in bromodeoxyuridine incorporation measured during S phase at 15.6 to 31.2 ug/mL after 24 hr by ELISA; assay type: functional
A549 [17] = assay: Inhibition of nuclear DNA synthesis in Homo sapiens (human) A549 cells assessed as decrease in bromodeoxyuridine incorporation measured during S phase at IC50 after 24 hr by ELISA; assay type: functional
C6 [18] = assay: Inhibition of nuclear DNA synthesis in Rattus norvegicus (rat) C6 cells assessed as decrease in bromodeoxyuridine incorporation measured during S phase at IC50 after 24 hr by ELISA; assay type: functional

CCn1c2ccccc2c2cc(NC(=O)CSC(=S)N3CCN(CCN(C)C)CC3)ccc21
inhibition (INH) (C6 [1]): 87.1% | Activity (C6 [2]): 11.5% | Activity (C6 [3]): 0.2% | inhibition (A549 [4]): Dose-dependent effect | Activity (A549 [5]): 10.3% | IC50 (A549 [6]): 41 µg/mL (≈ 84.8 µM) | Activity (C6 [7]): 4.7% | inhibition (INH) (A549 [8]): 53.4% | IC50 (C6 [9]): 5.9 µg/mL (≈ 12.2 µM) | Activity (A549 [10]): 8.1% | inhibition (C6 [11]): Dose-dependent effect | inhibition [12]: 91.3% | Activity (A549 [13]): 65% | pIC50 (Acetylcholinesterase): 4.81 | Activity (C6 [14]): 83.7% | IC50 (NIH3T3): 44.3 µg/mL (≈ 91.6 µM) | Activity (A549 [15]): 16.6%

CCn1c2ccccc2c2cc(NC(=O)CSC(=S)N3CCCC3)ccc21
inhibition (A549 [4]): Dose-dependent effect | IC50 (A549 [6]): 193 µg/mL (≈ 486 µM) | inhibition (A549 [8]): Active | IC50 (C6 [9]): 75 µg/mL (≈ 189 µM) | inhibition (C6 [11]): Dose-dependent effect | inhibition [12]: 9.05% | pIC50 (Acetylcholinesterase): < 3.70 | IC50 (NIH3T3): 270 µg/mL (≈ 679 µM)

CCN1CCN(C(=S)SCC(=O)Nc2ccc3c(c2)c2ccccc2n3CC)CC1
inhibition (A549 [4]): Dose-dependent effect | IC50 (A549 [6]): 61.7 µg/mL (≈ 140 µM) | inhibition (A549 [8]): Active | IC50 (C6 [9]): 20 µg/mL (≈ 45.4 µM) | inhibition (C6 [11]): Dose-dependent effect | inhibition [12]: 19.6% | pIC50 (Acetylcholinesterase): < 3.74 | IC50 (NIH3T3): < 3.9 µg/mL

CCn1c2ccccc2c2cc(NC(=O)CSC(=S)N3CCN(c4ccccc4)CC3)ccc21
inhibition (A549 [4]): Dose-dependent effect | IC50 (A549 [6]): 193 µg/mL (≈ 395 µM) | inhibition (A549 [8]): Active | IC50 (C6 [9]): 143 µg/mL (≈ 293 µM) | inhibition (C6 [11]): Dose-dependent effect | inhibition [12]: 26.6% | pIC50 (Acetylcholinesterase): < 3.79 | IC50 (NIH3T3): 357 µg/mL (≈ 730 µM)

CCn1c2ccccc2c2cc(NC(=O)CSC(=S)N3CCOCC3)ccc21
inhibition (A549 [4]): Dose-dependent effect | IC50 (A549 [6]): 25.7 µg/mL (≈ 62.1 µM) | inhibition (A549 [8]): Active | IC50 (C6 [9]): 180 µg/mL (≈ 435 µM) | inhibition (C6 [11]): Dose-dependent effect | inhibition [12]: 15.4% | pIC50 (Acetylcholinesterase): < 3.71 | IC50 (NIH3T3): 127 µg/mL (≈ 306 µM)

CCn1c2ccccc2c2cc(NC(=O)CSC(=S)N3CCN(C)CC3)ccc21
Activity (C6 [2]): 8.8% | Activity (C6 [3]): 0% | inhibition (A549 [4]): Dose-dependent effect | Activity (A549 [5]): 1.8% | IC50 (A549 [6]): 34.3 µg/mL (≈ 80.4 µM) | Activity (C6 [7]): 82.3% | inhibition (INH) (A549 [8]): 46.6% | IC50 (C6 [9]): 21.3 µg/mL (≈ 49.9 µM) | Activity (A549 [10]): 0.4% | inhibition (C6 [11]): Dose-dependent effect | inhibition [12]: 21.1% | Activity (A549 [13]): 94.5% | inhibition (INH) (C6 [16]): 45.5% | pIC50 (Acetylcholinesterase): < 3.73 | Activity (C6 [14]): 7.3% | IC50 (NIH3T3): 48.7 µg/mL (≈ 114 µM) | Activity (A549 [15]): 3.3%

CCn1c2ccccc2c2cc(NC(=O)CSC(=S)N3CCC(C)CC3)ccc21
inhibition (A549 [4]): Dose-dependent effect | IC50 (A549 [6]): 313 µg/mL (≈ 736 µM) | inhibition (A549 [8]): Active | IC50 (C6 [9]): 167 µg/mL (≈ 392 µM) | inhibition (C6 [11]): Dose-dependent effect | inhibition [12]: 23.6% | pIC50 (Acetylcholinesterase): < 3.73 | IC50 (NIH3T3): > 500 µg/mL

CCn1c2ccccc2c2cc(NC(=O)CSC(=S)N3CCCCC3)ccc21
inhibition (A549 [4]): Dose-dependent effect | IC50 (A549 [6]): 177 µg/mL (≈ 429 µM) | inhibition (A549 [8]): Active | IC50 (C6 [9]): 198 µg/mL (≈ 482 µM) | inhibition (C6 [11]): Dose-dependent effect | inhibition [12]: 11.3% | pIC50 (Acetylcholinesterase): < 3.71 | IC50 (NIH3T3): 393 µg/mL (≈ 956 µM)

CCn1c2ccccc2c2cc(NC(=O)CSC(=S)N3CCN(Cc4ccccc4)CC3)ccc21
inhibition (A549 [4]): Dose-dependent effect | IC50 (A549 [6]): 107 µg/mL (≈ 212 µM) | inhibition (A549 [8]): Active | IC50 (C6 [9]): 170 µg/mL (≈ 338 µM) | inhibition (C6 [11]): Dose-dependent effect | inhibition [12]: 12.8% | pIC50 (Acetylcholinesterase): < 3.80 | IC50 (NIH3T3): 110 µg/mL (≈ 218 µM)

CCN(CC)C(=S)SCC(=O)Nc1ccc2c(c1)c1ccccc1n2CC
inhibition (A549 [4]): Dose-dependent effect | IC50 (A549 [6]): 41.7 µg/mL (≈ 104 µM) | inhibition (A549 [8]): Active | IC50 (C6 [9]): 64.3 µg/mL (≈ 161 µM) | inhibition (C6 [11]): Dose-dependent effect | inhibition [12]: 18.3% | pIC50 (Acetylcholinesterase): < 3.70 | IC50 (NIH3T3): 390 µg/mL (≈ 976 µM)

CCn1c2ccccc2c2cc(NC(=O)CSC(=S)N3CCCCC3C)ccc21 (stereo unspecified)
Activity (C6 [2]): 5.1% | Activity (C6 [3]): 0.3% | inhibition (A549 [4]): Dose-dependent effect | Activity (A549 [5]): 2.8% | IC50 (A549 [6]): 29.3 µg/mL (≈ 68.8 µM) | Activity (C6 [7]): 88.3% | inhibition (INH) (A549 [8]): 71.2% | IC50 (C6 [9]): 26.7 µg/mL (≈ 62.7 µM) | Activity (A549 [10]): 1% | inhibition (C6 [11]): Dose-dependent effect | inhibition [12]: 18% | Activity (A549 [13]): 93.3% | inhibition (INH) (C6 [16]): 48.3% | pIC50 (Acetylcholinesterase): < 3.73 | Activity (C6 [14]): 6.2% | IC50 (NIH3T3): 257 µg/mL (≈ 603 µM) | Activity (A549 [15]): 2.9%

O=C1c2c(O)ccc(O)c2C(=O)c2c(NCCNCCO)ccc(NCCNCCO)c21 [MITOXANTRONE]
inhibition (INH) (A549 [17]): 67.3% | inhibition (A549 [4]): Dose-dependent effect | IC50 (A549 [6]): 25.3 µg/mL (≈ 56.9 µM) | IC50 (C6 [9]): 10.9 µg/mL (≈ 24.5 µM) | inhibition (C6 [11]): Dose-dependent effect | inhibition (INH) (C6 [18]): 84.6%
